The source made the active and inactive calls. No cut-off for these calls is given here.
Columns and labels:
Mus musculus [1] = assay: Antiinflammatory activity in ICR mouse assessed as reversal in LPS-induced weight loss at 12.5 to 200 mg/kg, ip administered for 5 days prior to LPS-challenge measured from day 9 to 11 relative to control; type: functional, organism-based
RAW264.7 [2] = assay: Effect on ERK level in mouse LPS-induced RAW264.7 cells at 0.1 to 0.4 uM incubated for 2 hrs prior to LPS-challenge measured after 30 mins by Western blot analysis; type: functional, cell-based
RAW264.7 [3] = assay: Effect on JNK level in mouse LPS-induced RAW264.7 cells at 0.1 to 0.4 uM incubated for 2 hrs prior to LPS-challenge measured after 30 mins by Western blot analysis; type: functional, cell-based
RAW264.7 [4] = assay: Effect on MAPK p38 level in mouse LPS-induced RAW264.7 cells at 0.1 to 0.4 uM incubated for 2 hrs prior to LPS-challenge measured after 30 mins by Western blot analysis; type: functional, cell-based
RAW264.7 [5] = assay: Cytotoxicity against mouse RAW264.7 cells at 80 uM after 24 hrs by MTT assay; type: cell-based; conditions: raw264.7, 24 h
RAW264.7 [6] = assay: Antiinflammatory activity in mouse RAW264.7 cells assessed as inhibition of LPS-stimulated IL-6 mRNA expression incubated for 2 hrs prior to LPS-challenge measured after 8 hrs by quantitative real time PCR analysis relative to control; type: functional, cell-based
RAW264.7 [7] = assay: Ratio of glycyrrhetinic acid to compound activity in mouse RAW264.7 cells; type: functional
RAW264.7 [8] = assay: Antiinflammatory activity in mouse RAW264.7 cells assessed as inhibition of NO production after 24 hrs in presence of mifepristone; type: functional, cell-based
Mus musculus [9] = assay: Antiinflammatory activity in ICR mouse assessed as reversal in LPS-induced weight loss at 12.5 to 200 mg/kg, ip administered for 5 days prior to LPS-challenge measured up to day 8 relative to control; type: functional, organism-based
Mus musculus [10] = assay: Antiinflammatory activity in ICR mouse assessed as protection against LPS-induced sepsis at 50 mg/kg, ip administered for 5 days prior to LPS-challenge measured after 2 hrs; type: functional, organism-based; parameters: dose 50 mg/kg
RAW264.7 [11] = assay: Inhibition of ERK phosphorylation in mouse LPS-induced RAW264.7 cells at 0.1 to 0.4 uM incubated for 2 hrs prior to LPS-challenge measured after 30 mins by Western blot analysis; type: cell-based
RAW264.7 [12] = assay: Inhibition of JNK phosphorylation in mouse LPS-induced RAW264.7 cells at 0.1 to 0.4 uM incubated for 2 hrs prior to LPS-challenge measured after 30 mins by Western blot analysis; type: cell-based
[13] = biological target: MAP kinase p38 (Mus musculus) (UniProt P47811+O08911+Q9WUI1+Q9Z1B7); assay: Inhibition of MAPK p38 in mouse LPS-induced RAW264.7 cells at 0.1 to 0.4 uM incubated for 2 hrs prior to LPS-challenge measured after 30 mins by Western blot analysis; type: cell-based
[14] = biological target: T1, NF-kappa-B inhibitor alpha (Mus musculus) (UniProt Q9Z1E3); assay: Inhibition of IkappaBalpha in mouse RAW264.7 cells assessed as inhibition of LPS-stimulated NF-kappaB p65 subunit translocation to nucleus at 0.1 to 0.4 uM incubated for 2 hrs prior to LPS-challenge measured after 30 mins by Western blot analysis; type: cell-based
T1 sequence (whole entry): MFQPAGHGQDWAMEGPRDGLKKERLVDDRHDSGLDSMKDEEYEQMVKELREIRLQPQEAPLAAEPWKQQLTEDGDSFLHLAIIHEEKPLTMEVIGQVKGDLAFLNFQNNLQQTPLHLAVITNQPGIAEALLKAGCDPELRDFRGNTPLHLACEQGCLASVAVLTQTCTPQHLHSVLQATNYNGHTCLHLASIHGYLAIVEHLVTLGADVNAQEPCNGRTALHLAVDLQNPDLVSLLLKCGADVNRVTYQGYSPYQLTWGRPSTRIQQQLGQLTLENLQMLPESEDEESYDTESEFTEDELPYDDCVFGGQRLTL

[15] = biological target: T1, NF-kappa-B inhibitor alpha (Mus musculus); assay: Inhibition of IkappaBalpha degradation in mouse LPS-induced RAW264.7 cells assessed as increase in cytosolic IkappaB level at 0.1 to 0.4 uM incubated for 2 hrs prior to LPS-challenge measured after 30 mins by Western blot analysis; type: cell-based
[16] = biological target: T1, NF-kappa-B inhibitor alpha (Mus musculus); assay: Inhibition of IkappaB phosphorylation in mouse LPS-induced RAW264.7 cells at 0.1 to 0.4 uM incubated for 2 hrs prior to LPS-challenge measured after 30 mins by Western blot analysis; type: cell-based
RAW264.7 [17] = assay: Antiinflammatory activity in mouse RAW264.7 cells assessed as inhibition of LPS-stimulated TNF-alpha mRNA expression at 0.2 to 0.4 uM incubated for 2 hrs prior to LPS-challenge measured after 8 hrs by quantitative real time PCR analysis; type: functional, cell-based
RAW264.7 [18] = assay: Antiinflammatory activity in mouse RAW264.7 cells assessed as inhibition of LPS-stimulated IL-1beta mRNA expression at 0.1 to 0.4 uM incubated for 2 hrs prior to LPS-challenge measured after 8 hrs by quantitative real time PCR analysis; type: functional, cell-based
RAW264.7 [19] = assay: Antiinflammatory activity in mouse RAW264.7 cells assessed as inhibition of LPS-stimulated IL-6 mRNA expression at 0.1 to 0.4 uM incubated for 2 hrs prior to LPS-challenge measured after 8 hrs by quantitative real time PCR analysis; type: functional, cell-based
RAW264.7 [20] = assay: Antiinflammatory activity in mouse RAW264.7 cells assessed as inhibition of LPS-induced iNOS mRNA expression at 0.1 to 0.4 uM incubated for 2 hrs prior to LPS-challenge measured after 8 hrs by qPCR analysis; type: functional, cell-based
RAW264.7 [21] = assay: Antiinflammatory activity in mouse RAW264.7 cells assessed as inhibition of LPS-induced iNOS protein expression incubated for 2 hrs prior to LPS-challenge measured after 24 hrs by Western blot analysis; type: functional, cell-based
RAW264.7 [22] = assay: Cytotoxicity against mouse LPS-challenged RAW264.7 cells at 80 uM after 24 hrs by MTT assay; type: cell-based; conditions: raw264.7, 24 h
RAW264.7 [23] = assay: Antiinflammatory activity in mouse RAW264.7 cells assessed as inhibition of LPS-induced NO production incubated for 2 hrs prior to LPS-challenge measured after 24 hrs by Griess method; type: functional, cell-based
RAW264.7 [24] = assay: Antiinflammatory activity in mouse RAW264.7 cells assessed as inhibition of LPS-induced NO production at 50 uM incubated for 2 hrs prior to LPS-challenge measured after 24 hrs by Griess method; type: functional
Mus musculus [25] = assay: Antiinflammatory activity in ICR mouse assessed as protection against LPS-induced sepsis at 12.5 to 200 mg/kg, ip administered for 5 days prior to LPS-challenge measured after 2 hrs post last dose; type: functional, organism-based

CC1(C)C(=O)C(C#N)=C[C@]2(C)C3=CC=C4[C@@H]5C[C@@](C)(C#N)CC[C@]5(C)CC[C@@]4(C)[C@]3(C)CC[C@@H]12
Activity (Mus musculus [1]): Active
Activity (RAW264.7 [2]): inactive
Activity (RAW264.7 [3]): inactive
Activity (RAW264.7 [4]): inactive
Activity (RAW264.7 [5]): Non-toxic
inhibition (RAW264.7 [6]): inactive
Ratio (RAW264.7 [7]): 1000
inhibition (RAW264.7 [8]): Active
Activity (Mus musculus [9]): inactive
Activity (Mus musculus [10]): Active
inhibition (RAW264.7 [11]): Active
inhibition (RAW264.7 [12]): Active
inhibition [13]: Active
inhibition [14]: Active
inhibition [15]: Active
inhibition [16]: Active
inhibition (RAW264.7 [17]): Active
inhibition (RAW264.7 [18]): Dose-dependent effect
inhibition (RAW264.7 [19]): Dose-dependent effect
inhibition (RAW264.7 [20]): Active
inhibition (RAW264.7 [21]): Dose-dependent effect
Activity (RAW264.7 [22]): Non-toxic
IC50 (RAW264.7 [23]): 200 nM
inhibition at 50 µM (RAW264.7 [24]): 99.1%
Activity (Mus musculus [25]): inactive

Source: ChEMBL document CHEMBL2331446, “Discovery of a potential anti-inflammatory agent: 3-oxo-29-noroleana-1,9(11),12-trien-2,20-dicarbonitrile” (J Med Chem, 2013)
